Results published in ChEMBL document CHEMBL4507270 (2021).

Columns and labels:
[1] = molecular target: 5-hydroxytryptamine receptor 2B (Homo sapiens, UniProt P41595); conditions: Compound concentration 10.0 uM
[2] = molecular target: Serine/threonine-protein kinase ULK2 (Homo sapiens) (UniProt Q8IYT8)
[3] = tested on: Phosphatidylinositol 4,5-bisphosphate 3-kinase catalytic subunit alpha isoform (Homo sapiens), P42336 [E545A]
[4] = molecular target: SRSF protein kinase 2 (Homo sapiens) (UniProt P78362)
Sequence of SRSF protein kinase 2 (Homo sapiens) (P78362 whole entry, looked up): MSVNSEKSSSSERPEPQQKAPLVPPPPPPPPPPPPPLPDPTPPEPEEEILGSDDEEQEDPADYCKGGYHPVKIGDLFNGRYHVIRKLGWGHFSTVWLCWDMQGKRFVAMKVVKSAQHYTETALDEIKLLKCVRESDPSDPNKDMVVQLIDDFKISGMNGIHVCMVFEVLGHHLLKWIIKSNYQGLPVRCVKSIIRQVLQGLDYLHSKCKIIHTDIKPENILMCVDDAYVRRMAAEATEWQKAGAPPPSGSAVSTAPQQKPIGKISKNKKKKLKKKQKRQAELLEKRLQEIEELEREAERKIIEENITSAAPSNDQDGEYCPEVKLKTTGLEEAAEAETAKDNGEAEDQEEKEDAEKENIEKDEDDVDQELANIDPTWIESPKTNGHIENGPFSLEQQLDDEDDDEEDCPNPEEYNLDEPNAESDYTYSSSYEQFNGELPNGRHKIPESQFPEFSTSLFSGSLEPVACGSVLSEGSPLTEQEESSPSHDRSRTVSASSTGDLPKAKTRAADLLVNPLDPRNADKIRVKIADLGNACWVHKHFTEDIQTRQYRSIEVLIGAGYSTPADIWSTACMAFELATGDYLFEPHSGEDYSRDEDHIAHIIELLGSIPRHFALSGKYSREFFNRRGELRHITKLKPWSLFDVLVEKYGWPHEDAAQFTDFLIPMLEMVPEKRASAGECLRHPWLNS

[5] = molecular target: Alpha-2B adrenergic receptor (Homo sapiens) (UniProt P18089); conditions: Compound concentration 10.0 uM
[6] = molecular target: Phosphorylase b kinase regulatory subunit alpha, liver isoform (Homo sapiens) (UniProt P46019)
[7] = molecular target: Serine/threonine-protein kinase Chk2 (Homo sapiens) (UniProt O96017)
[8] = molecular target: Casein kinase I isoform gamma-3 (Homo sapiens) (UniProt Q9Y6M4)
[9] = tested on: Mast/stem cell growth factor receptor Kit (Homo sapiens), P10721 [D816V]
[10] = molecular target: LIM domain kinase 2 (Homo sapiens) (UniProt P53671)
[11] = molecular target: 5-hydroxytryptamine receptor 1A (Homo sapiens) (UniProt P08908); conditions: Compound concentration 10.0 uM
Sequence of 5-hydroxytryptamine receptor 1A (Homo sapiens) (P08908 whole entry): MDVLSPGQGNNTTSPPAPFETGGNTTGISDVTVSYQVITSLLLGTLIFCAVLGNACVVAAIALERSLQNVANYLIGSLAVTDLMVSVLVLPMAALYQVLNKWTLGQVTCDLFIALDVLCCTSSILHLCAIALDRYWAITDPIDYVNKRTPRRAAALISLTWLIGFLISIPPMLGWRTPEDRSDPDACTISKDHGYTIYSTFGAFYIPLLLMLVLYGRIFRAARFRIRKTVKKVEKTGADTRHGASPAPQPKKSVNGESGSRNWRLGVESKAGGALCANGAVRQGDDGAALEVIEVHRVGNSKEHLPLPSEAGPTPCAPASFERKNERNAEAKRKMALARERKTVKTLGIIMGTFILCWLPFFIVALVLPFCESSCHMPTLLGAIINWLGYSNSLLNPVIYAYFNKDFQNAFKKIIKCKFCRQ

[12] = species on record: Rattus norvegicus; conditions: Compound concentration 10.0 uM
[13] = molecular target: 5-hydroxytryptamine receptor 5A (Homo sapiens) (UniProt P47898); conditions: Compound concentration 10.0 uM
[14] = tested on: Mast/stem cell growth factor receptor Kit (Homo sapiens), P10721 [A829P]
[15] = molecular target: Mitogen-activated protein kinase kinase kinase 10 (Homo sapiens) (UniProt Q02779)
[16] = tested on: Phosphatidylinositol 4,5-bisphosphate 3-kinase catalytic subunit alpha isoform (Homo sapiens), P42336 [C420R]
Sequence of Phosphatidylinositol 4,5-bisphosphate 3-kinase catalytic subunit alpha isoform (Homo sapiens), P42336 [C420R] (P42336 whole entry C420R, canonical isoform): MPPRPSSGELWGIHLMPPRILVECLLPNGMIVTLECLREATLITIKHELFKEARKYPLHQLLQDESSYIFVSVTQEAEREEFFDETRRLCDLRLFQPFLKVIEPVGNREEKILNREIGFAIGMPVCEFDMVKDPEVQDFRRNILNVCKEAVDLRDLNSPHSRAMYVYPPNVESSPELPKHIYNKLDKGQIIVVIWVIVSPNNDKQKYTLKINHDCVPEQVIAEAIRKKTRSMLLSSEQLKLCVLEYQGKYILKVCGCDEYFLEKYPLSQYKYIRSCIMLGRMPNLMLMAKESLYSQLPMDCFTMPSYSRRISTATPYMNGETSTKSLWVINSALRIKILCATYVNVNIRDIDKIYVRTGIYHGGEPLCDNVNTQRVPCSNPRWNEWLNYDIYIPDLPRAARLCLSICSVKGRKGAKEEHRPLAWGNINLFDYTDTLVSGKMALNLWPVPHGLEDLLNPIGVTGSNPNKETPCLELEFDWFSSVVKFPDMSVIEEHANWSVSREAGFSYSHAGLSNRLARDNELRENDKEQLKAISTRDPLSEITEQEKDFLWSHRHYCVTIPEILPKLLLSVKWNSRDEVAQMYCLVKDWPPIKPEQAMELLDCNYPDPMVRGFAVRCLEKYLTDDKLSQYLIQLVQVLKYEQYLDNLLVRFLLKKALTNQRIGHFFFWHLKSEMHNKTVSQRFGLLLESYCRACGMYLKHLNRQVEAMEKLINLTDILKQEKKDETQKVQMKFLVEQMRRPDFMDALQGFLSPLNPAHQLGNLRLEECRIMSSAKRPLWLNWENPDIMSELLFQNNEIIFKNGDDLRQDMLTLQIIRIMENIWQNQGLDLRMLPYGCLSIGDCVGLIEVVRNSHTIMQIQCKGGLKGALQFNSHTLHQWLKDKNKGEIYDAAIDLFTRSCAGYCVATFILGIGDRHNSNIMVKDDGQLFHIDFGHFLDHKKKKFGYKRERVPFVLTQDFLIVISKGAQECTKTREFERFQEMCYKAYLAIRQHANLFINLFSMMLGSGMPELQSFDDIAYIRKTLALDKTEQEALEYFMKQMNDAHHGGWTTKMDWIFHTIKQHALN

[17] = NanoBRET assay (SGC Frankfurt) with LYN; conditions: Homo sapiens
[18] = molecular target: Dual specificity protein kinase TTK (Homo sapiens) (UniProt P33981)
[19] = molecular target: Interferon-induced, double-stranded RNA-activated protein kinase (Homo sapiens) (UniProt P19525)
Sequence of Interferon-induced, double-stranded RNA-activated protein kinase (Homo sapiens) (P19525 whole entry): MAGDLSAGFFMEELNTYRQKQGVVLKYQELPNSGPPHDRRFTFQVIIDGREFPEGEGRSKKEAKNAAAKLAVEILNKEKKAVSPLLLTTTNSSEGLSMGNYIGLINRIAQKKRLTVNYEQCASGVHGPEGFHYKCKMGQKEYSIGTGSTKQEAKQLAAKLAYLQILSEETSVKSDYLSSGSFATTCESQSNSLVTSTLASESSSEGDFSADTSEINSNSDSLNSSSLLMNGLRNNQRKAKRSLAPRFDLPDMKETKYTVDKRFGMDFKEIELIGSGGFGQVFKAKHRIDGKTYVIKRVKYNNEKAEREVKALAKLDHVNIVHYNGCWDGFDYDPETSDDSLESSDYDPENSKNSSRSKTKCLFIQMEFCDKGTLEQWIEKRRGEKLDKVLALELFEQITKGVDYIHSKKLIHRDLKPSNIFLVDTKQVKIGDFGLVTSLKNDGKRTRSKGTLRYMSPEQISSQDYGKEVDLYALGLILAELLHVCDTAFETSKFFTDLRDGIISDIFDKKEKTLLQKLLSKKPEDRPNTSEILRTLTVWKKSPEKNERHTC

[20] = tested on: Epidermal growth factor receptor (Homo sapiens), P00533 [L858R]
[21] = tested on: Tyrosine-protein kinase ABL1 (Homo sapiens), P00519 [T315I]
[22] = molecular target: STE20-like serine/threonine-protein kinase (Homo sapiens) (UniProt Q9H2G2)
[23] = tested on: Tyrosine-protein kinase ABL1 (Homo sapiens), P00519 [M351T]
[24] = tested on: Tyrosine-protein kinase ABL1 (Homo sapiens), P00519 [F317I]
[25] = molecular target: Vascular endothelial growth factor receptor 3 (Homo sapiens, UniProt P35916)
[26] = molecular target: Serine/threonine-protein kinase SIK2 (Homo sapiens) (UniProt Q9H0K1)
Sequence of Serine/threonine-protein kinase SIK2 (Homo sapiens) (Q9H0K1 whole entry, looked up): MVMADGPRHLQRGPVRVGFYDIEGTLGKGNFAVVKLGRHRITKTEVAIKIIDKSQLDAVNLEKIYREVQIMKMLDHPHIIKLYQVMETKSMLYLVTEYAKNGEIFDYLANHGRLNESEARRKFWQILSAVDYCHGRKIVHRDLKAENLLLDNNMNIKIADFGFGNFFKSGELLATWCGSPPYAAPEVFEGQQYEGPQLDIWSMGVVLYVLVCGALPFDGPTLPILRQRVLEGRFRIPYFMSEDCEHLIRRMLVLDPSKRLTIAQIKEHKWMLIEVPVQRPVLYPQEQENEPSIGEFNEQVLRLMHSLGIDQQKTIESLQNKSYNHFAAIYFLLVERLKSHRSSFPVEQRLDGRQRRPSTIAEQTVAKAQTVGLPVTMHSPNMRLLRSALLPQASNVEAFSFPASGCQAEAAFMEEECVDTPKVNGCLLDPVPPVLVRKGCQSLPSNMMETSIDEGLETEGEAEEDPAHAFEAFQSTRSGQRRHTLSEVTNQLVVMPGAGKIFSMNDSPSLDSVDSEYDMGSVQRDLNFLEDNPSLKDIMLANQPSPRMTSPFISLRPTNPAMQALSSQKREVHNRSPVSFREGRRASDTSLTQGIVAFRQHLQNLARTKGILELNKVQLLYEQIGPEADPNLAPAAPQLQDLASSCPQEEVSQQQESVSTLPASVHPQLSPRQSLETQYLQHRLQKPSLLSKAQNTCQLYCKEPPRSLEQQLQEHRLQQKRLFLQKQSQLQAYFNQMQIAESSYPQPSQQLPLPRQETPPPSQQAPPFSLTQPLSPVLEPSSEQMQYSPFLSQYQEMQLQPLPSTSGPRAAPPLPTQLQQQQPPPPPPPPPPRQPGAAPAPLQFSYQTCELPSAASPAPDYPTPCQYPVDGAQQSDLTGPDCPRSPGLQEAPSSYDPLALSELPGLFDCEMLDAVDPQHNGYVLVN

[27] = molecular target: MAP kinase-activated protein kinase 5 (Homo sapiens) (UniProt Q8IW41)
[28] = molecular target: Beta-2 adrenergic receptor (Homo sapiens) (UniProt P07550); conditions: Compound concentration 10.0 uM
[29] = molecular target: Dual specificity mitogen-activated protein kinase kinase 1 (Homo sapiens) (UniProt Q02750)
[30] = molecular target: Proto-oncogene tyrosine-protein kinase ROS (Homo sapiens) (UniProt P08922)
[31] = molecular target: Cyclin-dependent kinase 3 (Homo sapiens) (UniProt Q00526)
[32] = molecular target: Muscarinic acetylcholine receptor M5 (Homo sapiens) (UniProt P08912); conditions: Compound concentration 10.0 uM
[33] = molecular target: cAMP-dependent protein kinase catalytic subunit beta (Homo sapiens) (UniProt P22694)
[34] = tested on: Tyrosine-protein kinase ABL1 (Homo sapiens), P00519 [H396P]
[35] = molecular target: D(2) dopamine receptor (Homo sapiens, UniProt P14416); conditions: Compound concentration 10.0 uM
Sequence of D(2) dopamine receptor (P14416 whole entry): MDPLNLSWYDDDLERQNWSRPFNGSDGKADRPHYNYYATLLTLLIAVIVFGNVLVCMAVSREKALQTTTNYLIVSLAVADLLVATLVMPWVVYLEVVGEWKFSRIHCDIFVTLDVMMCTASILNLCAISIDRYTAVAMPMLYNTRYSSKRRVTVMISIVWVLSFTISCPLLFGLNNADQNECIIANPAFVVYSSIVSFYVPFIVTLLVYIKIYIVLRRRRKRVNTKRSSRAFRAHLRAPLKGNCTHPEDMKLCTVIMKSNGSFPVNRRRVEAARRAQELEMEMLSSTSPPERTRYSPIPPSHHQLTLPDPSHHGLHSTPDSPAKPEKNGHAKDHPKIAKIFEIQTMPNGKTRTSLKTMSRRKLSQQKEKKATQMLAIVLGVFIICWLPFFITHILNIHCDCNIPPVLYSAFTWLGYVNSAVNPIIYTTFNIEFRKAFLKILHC

[36] = molecular target: Cyclin-dependent kinase-like 1 (Homo sapiens) (UniProt Q00532)
[37] = molecular target: Mitogen-activated protein kinase kinase kinase 15 (Homo sapiens) (UniProt Q6ZN16)
[38] = molecular target: Wee1-like protein kinase 2 (Homo sapiens) (UniProt P0C1S8)
[39] = molecular target: Mitogen-activated protein kinase 11 (Homo sapiens) (UniProt Q15759)
[40] = molecular target: Dual specificity tyrosine-phosphorylation-regulated kinase 1B (Homo sapiens) (UniProt Q9Y463)
[41] = molecular target: Serine/threonine-protein kinase RIO3 (Homo sapiens) (UniProt O14730)
[42] = molecular target: Casein kinase I isoform delta (Homo sapiens) (UniProt P48730)
Sequence of Casein kinase I isoform delta (Homo sapiens) (P48730 whole entry, looked up, canonical isoform): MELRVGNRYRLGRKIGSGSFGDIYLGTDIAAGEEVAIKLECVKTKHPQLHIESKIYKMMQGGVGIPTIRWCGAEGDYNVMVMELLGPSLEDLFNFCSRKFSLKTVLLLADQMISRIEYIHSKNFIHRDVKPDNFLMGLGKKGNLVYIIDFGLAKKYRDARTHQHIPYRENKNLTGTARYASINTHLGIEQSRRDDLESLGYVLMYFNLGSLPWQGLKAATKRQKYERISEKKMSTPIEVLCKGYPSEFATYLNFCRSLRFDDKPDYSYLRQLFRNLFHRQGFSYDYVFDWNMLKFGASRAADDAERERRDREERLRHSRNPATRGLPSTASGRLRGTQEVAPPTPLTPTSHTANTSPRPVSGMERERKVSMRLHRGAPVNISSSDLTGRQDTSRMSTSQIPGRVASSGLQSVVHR

[43] = tested on: Hepatocyte growth factor receptor (Homo sapiens), P08581 [M1250T]
[44] = molecular target: Serine/threonine-protein kinase WNK1 (Homo sapiens) (UniProt Q9H4A3)
[45] = molecular target: Mast/stem cell growth factor receptor Kit (Homo sapiens) (UniProt P10721)
[46] = molecular target: Histamine H1 receptor (Homo sapiens) (UniProt P35367); conditions: Compound concentration 10.0 uM
[47] = Compound concentration 1000.0 nM
[48] = Compound concentration 100.0 nM

Sequence of 5-hydroxytryptamine receptor 2B (P41595 whole entry): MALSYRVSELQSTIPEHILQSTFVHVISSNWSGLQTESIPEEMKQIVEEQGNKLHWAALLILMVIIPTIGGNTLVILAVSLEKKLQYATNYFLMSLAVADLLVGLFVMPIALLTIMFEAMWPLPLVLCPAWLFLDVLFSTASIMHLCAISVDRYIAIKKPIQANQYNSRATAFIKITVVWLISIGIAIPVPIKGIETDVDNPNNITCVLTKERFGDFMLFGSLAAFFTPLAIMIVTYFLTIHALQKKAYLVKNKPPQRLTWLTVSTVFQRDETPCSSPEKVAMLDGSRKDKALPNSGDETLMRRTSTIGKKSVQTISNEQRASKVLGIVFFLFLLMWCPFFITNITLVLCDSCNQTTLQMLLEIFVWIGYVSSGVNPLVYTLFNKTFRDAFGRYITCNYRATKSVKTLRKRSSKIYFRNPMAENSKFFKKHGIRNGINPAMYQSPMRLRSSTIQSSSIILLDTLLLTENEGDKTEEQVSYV

Question: With `Cc1cc(NC(=O)c2cccc(S(F)(F)(F)(F)F)c2)cc(-n2ccn3nc(-c4cccnc4)cc23)c1` [BAY-309] as the compound, how does the inhibition [1] read?
Answer: 60.4%

Question: And the residual activity [2, 47]?
Answer: 73.7%

Question: What about the residual activity [3, 47] of the same compound?
Answer: 69.2%

Question: What about the residual activity [4, 47] of the same compound?
Answer: 100%

Question: And the inhibition [5]?
Answer: 11.9%

Question: And the residual activity [6, 47]?
Answer: 100%

Question: And the residual activity [7, 47]?
Answer: 100%

Question: And the residual activity [8, 47]?
Answer: 100%

Question: What about the residual activity [9, 47] of the same compound?
Answer: 100%

Question: What about the residual activity [10, 47] of the same compound?
Answer: 95.3%

Question: What about the inhibition [11] of the same compound?
Answer: 39.9%

Question: And the inhibition [12]?
Answer: 67.8%

Question: And the inhibition [13]?
Answer: -4.71%

Question: What about the residual activity [14, 47] of the same compound?
Answer: 100%

Question: What about the residual activity [15, 47] of the same compound?
Answer: 100%

Question: What about the residual activity [16, 47] of the same compound?
Answer: 97.1%

Question: What about the EC50 [17] of the same compound?
Answer: > 50 µM (not active)

Question: And the IC50 [17]?
Answer: 7 µM (not active)

Question: And the residual activity [18, 47]?
Answer: 44.8%

Question: And the residual activity [19, 47]?
Answer: 72.7%

Question: What about the residual activity [20, 47] of the same compound?
Answer: 100%

Question: And the residual activity [21, 47]?
Answer: 88.9%

Question: What about the residual activity [22, 47] of the same compound?
Answer: 95.2%

Question: What about the residual activity [23, 47] of the same compound?
Answer: 70.3%

Question: And the residual activity [24, 47]?
Answer: 100%

Question: What about the residual activity [25, 47] of the same compound?
Answer: 82.3%

Question: What about the residual activity [26, 47] of the same compound?
Answer: 100%

Question: And the residual activity [27, 47]?
Answer: 100%

Question: What about the inhibition [28] of the same compound?
Answer: -7.8%

Question: What about the residual activity [29, 47] of the same compound?
Answer: 100%

Question: What about the residual activity [30, 47] of the same compound?
Answer: 92.8%

Question: What about the residual activity [31, 47] of the same compound?
Answer: 100%

Question: And the inhibition [32]?
Answer: 8.74%

Question: And the residual activity [33, 47]?
Answer: 100%

Question: And the residual activity [34, 47]?
Answer: 66.9%

Question: What about the inhibition [35] of the same compound?
Answer: 62.1%

Question: What about the residual activity [36, 47] of the same compound?
Answer: 84.5%

Question: What about the residual activity [37, 47] of the same compound?
Answer: 100%

Question: What about the residual activity [38, 47] of the same compound?
Answer: 100%

Question: And the residual activity [39, 47]?
Answer: 98.1%

Question: And the residual activity [40, 47]?
Answer: 61.2%

Question: What about the residual activity [41, 47] of the same compound?
Answer: 85.9%

Question: What about the residual activity [42, 47] of the same compound?
Answer: 100%

Question: What about the residual activity [43, 47] of the same compound?
Answer: 83.2%

Question: And the residual activity [44, 47]?
Answer: 100%

Question: And the residual activity [45, 47]?
Answer: 70.3%

Question: For `Cc1cc(C)c(-n2ccn3nc(-c4cccnc4)cc23)cc1NC(=O)c1cc(C#N)cc(S(F)(F)(F)(F)F)c1` [BAY-826], which inhibition [1] is on record?
Answer: -7%

Question: And the residual activity [2, 48]?
Answer: 100%

Question: And the residual activity [3, 48]?
Answer: 73%

Question: What about the residual activity [4, 48] of the same compound?
Answer: 60.1%

Question: What about the inhibition [5] of the same compound?
Answer: 18.1%

Question: And the residual activity [6, 48]?
Answer: 78.3%

Question: What about the residual activity [7, 48] of the same compound?
Answer: 100%

Question: And the residual activity [8, 48]?
Answer: 93.7%

Question: What about the residual activity [9, 48] of the same compound?
Answer: 98.8%

Question: And the residual activity [10, 48]?
Answer: 89%

Question: What about the inhibition [11] of the same compound?
Answer: -6.68%

Question: And the inhibition [12]?
Answer: 59.1%

Question: What about the inhibition [13] of the same compound?
Answer: 9.57%

Question: And the residual activity [14, 48]?
Answer: 50.9%

Question: And the residual activity [15, 48]?
Answer: 100%

Question: And the residual activity [16, 48]?
Answer: 85.4%

Question: What about the EC50 [17] of the same compound?
Answer: 7.4 µM (not active)

Question: And the IC50 [17]?
Answer: 8.2 µM (not active)

Question: And the residual activity [18, 48]?
Answer: 72%

Question: What about the residual activity [19, 48] of the same compound?
Answer: 96.4%

Question: And the residual activity [20, 48]?
Answer: 83.9%

Question: And the residual activity [21, 48]?
Answer: 33.4%

Question: And the residual activity [22, 48]?
Answer: 48.5%

Question: What about the residual activity [23, 48] of the same compound?
Answer: 82.6%

Question: What about the residual activity [24, 48] of the same compound?
Answer: 76.4%

Question: What about the residual activity [25, 48] of the same compound?
Answer: 77.6%

Question: What about the residual activity [26, 48] of the same compound?
Answer: 94.2%

Question: What about the residual activity [27, 48] of the same compound?
Answer: 91.7%

Question: And the inhibition [28]?
Answer: 25.6%

Question: What about the residual activity [29, 48] of the same compound?
Answer: 76.2%

Question: And the residual activity [30, 48]?
Answer: 100%

Question: What about the residual activity [31, 48] of the same compound?
Answer: 92.4%

Question: What about the inhibition [32] of the same compound?
Answer: 16.1%

Question: What about the residual activity [33, 48] of the same compound?
Answer: 100%

Question: What about the residual activity [34, 48] of the same compound?
Answer: 69%

Question: What about the inhibition [35] of the same compound?
Answer: 8.74%

Question: What about the residual activity [36, 48] of the same compound?
Answer: 77.4%

Question: What about the inhibition [46] of the same compound?
Answer: 25.3%

Question: And the residual activity [37, 48]?
Answer: 48.8%

Question: And the residual activity [38, 48]?
Answer: 77.4%

Question: And the residual activity [39, 48]?
Answer: 93.4%

Question: And the residual activity [40, 48]?
Answer: 100%

Question: And the residual activity [41, 48]?
Answer: 100%

Question: And the residual activity [42, 48]?
Answer: 100%

Question: And the residual activity [43, 48]?
Answer: 100%

Question: What about the residual activity [44, 48] of the same compound?
Answer: 97.3%

Question: What about the residual activity [45, 48] of the same compound?
Answer: 76.8%
